In brackets after ≈: the same amount, converted by molar mass.
Experiments:
[1] = tested on: Staphylococcus aureus S13E; assay type: cell-based
Experimental: (§1) The MIC's were determined using a standard broth micro-dilution assay.

[2] = tested on: Staphylococcus aureus SA1199B; assay type: cell-based
Experimental: as §1

[3] = tested on: Entercoccus faecium 180-1; experiment: broth micro-dilution MIC; assay type: cell-based
Experimental: as §1

Entercoccus faecium 276 = experiment: broth micro-dilution MIC; assay type: cell-based
Experimental: as §1

[4] = tested on: Staphylococcus aureus 446; experiment: broth micro-dilution MIC; assay type: cell-based
Experimental: as §1

[5] = tested on: Staphylococcus aureus 447; experiment: broth micro-dilution MIC; assay type: cell-based
Experimental: as §1

[6] = tested on: Staphylococcus aureus 489; experiment: broth micro-dilution MIC; assay type: cell-based
Experimental: as §1

[7] = tested on: Staphylococcus aureus 491; experiment: broth micro-dilution MIC; assay type: cell-based
Experimental: as §1

[8] = tested on: Staphylococcus aureus SA1199A; experiment: broth micro-dilution MIC; assay type: cell-based
Experimental: as §1

[9] = tested on: Staphylococcus aureus SA1199; experiment: broth micro-dilution MIC; assay type: cell-based
Experimental: as §1

[10] = tested on: Staphylococcus aureus X400; experiment: broth micro-dilution MIC; assay type: cell-based
Experimental: as §1

[11] = tested on: Staphylococcus aureus X778; experiment: broth micro-dilution MIC; assay type: cell-based
Experimental: as §1

[12] = tested on: Streptococcus pyogenes C203; experiment: broth micro-dilution MIC; assay type: cell-based
Experimental: as §1

Entercoccus faecium 180 = experiment: broth micro-dilution MIC; assay type: cell-based; conditions: Entercoccus faecium 180
Experimental: (§2) The formula I compounds have in vitro and in vivo activity against Gram-positive pathogenic bacteria. The MIC's were determined using a standard broth micro-dilution assay.

Entercoccus faecium 2041 = experiment: broth micro-dilution MIC; assay type: cell-based; conditions: Entercoccus faecium 2041
Experimental: as §2

[13] = tested on: Enterococcus gallinarum 245; experiment: broth micro-dilution MIC; assay type: cell-based; conditions: Enterococcus gallinarum 245
Experimental: as §2

Escherichia coli EC14 = experiment: broth micro-dilution MIC; assay type: cell-based
Experimental: as §2

[14] = tested on: Haemophilus influenzae RD; experiment: broth micro-dilution MIC; assay type: cell-based; conditions: Haemophilus influenzae RD
Experimental: as §2

[15] = tested on: Staphylococcus epidermidis 270; experiment: broth micro-dilution MIC; assay type: cell-based
Experimental: as §2

[16] = tested on: Staphylococcus haemolyticus 105; experiment: broth micro-dilution MIC; assay type: cell-based
Experimental: as §2

[17] = tested on: Staphylococcus haemolyticus 415; experiment: broth micro-dilution MIC; assay type: cell-based
Experimental: as §2

[18] = tested on: Streptococcus pneumoniae P1; experiment: broth micro-dilution MIC; assay type: cell-based
Experimental: as §2

[19] = tested on: vancomycin-resistant enterococci; experiment: broth micro-dilution, mean geometric MIC; assay type: cell-based, Enterococcus faecium and Enterococcus faecalis; conditions: enterococci, 24-hour incubation
[20] = tested on: vancomycin-susceptible enterococci; experiment: broth micro-dilution, mean geometric MIC; assay type: cell-based, Enterococcus faecium and Enterococcus faecalis; conditions: enterococci, 24-hour incubation

Structure (SMILES) | MIC [1] [µg/mL] | MIC [2] [µg/mL] | MIC [3] [µg/mL] | MIC (Entercoccus faecium 276) [µg/mL] | MIC [4] [µg/mL] | MIC [5] [µg/mL] | MIC [6] [µg/mL] | MIC [7] [µg/mL] | MIC [8] [µg/mL] | MIC [9] [µg/mL] | MIC [10] [µg/mL] | MIC [11] [µg/mL] | MIC [12] [µg/mL] | MIC (Entercoccus faecium 180) [µg/mL] | MIC (Entercoccus faecium 2041) [µg/mL] | MIC [13] [µg/mL] | MIC (Escherichia coli EC14) [µg/mL] | MIC [14] [µg/mL] | MIC [15] [µg/mL] | MIC [16] [µg/mL] | further results
CC(C)CC(C(=O)NC1C(=O)NC(CC(N)=O)C(=O)NC2C(=O)NC3C(=O)NC(C(=O)NC(C(=O)O)c4cc(O)cc(O)c4-c4cc3ccc4O)C(OC3CC(C)(N)C(O)C(C)O3)c3ccc(c(Cl)c3)Oc3cc2cc(c3OC2OC(CO)C(O)C(O)C2OC2CC(C)(NCc3cccc(Oc4ccccc4)c3)C(O)C(C)O2)Oc2ccc(cc2Cl)C1O)N(C)Cc1cccc(Oc2ccccc2)c1 (stereo not drawn) [Compound 271] | 1 (≈ 0.511 µM) | 1 (≈ 0.511 µM) | 0.125 (≈ 0.0639 µM) | 1 (≈ 0.511 µM) | 1 (≈ 0.511 µM) | 2 (≈ 1.02 µM) | 1 (≈ 0.511 µM) | 0.5 (≈ 0.256 µM) | 0.5 (≈ 0.256 µM) | 2 (≈ 1.02 µM) | 2 (≈ 1.02 µM) | 0.5 (≈ 0.256 µM) | ≤ 0.06 | 2 (≈ 1.02 µM) | 2 (≈ 1.02 µM) | 2 (≈ 1.02 µM) | > 64 | > 64 | 1 (≈ 0.511 µM) | 2 (≈ 1.02 µM) | MIC [17]: 2 µg/mL (≈ 1.02 µM); MIC [18]: ≤ 0.06 µg/mL; mean geometric MIC, Vancomycin Resistant Strains [19]: 5.7 µg/mL; mean geometric MIC, Vancomycin Sensitive Strains [20]: 0.33 µg/mL
COc1ccc2nc(-c3ccccc3)cc(CNC3(C)CC(OC4C(Oc5c6cc7cc5Oc5ccc(cc5Cl)C(OC5CC(C)(N)C(O)C(C)O5)C5NC(=O)C(NC(=O)C7NC(=O)C(CC(N)=O)NC(=O)C(NC(=O)C(CC(C)C)N(C)Cc7cc(-c8ccccc8)nc8ccc(OC)cc78)C(O)c7ccc(c(Cl)c7)O6)c6ccc(O)c(c6)-c6c(O)cc(O)cc6C(C(=O)O)NC5=O)OC(CO)C(O)C4O)OC(C)C3O)c2c1 (stereo not drawn) [Compound 277] | 16 (≈ 7.67 µM) | 16 (≈ 7.67 µM) | 0.5 (≈ 0.24 µM) | 1 (≈ 0.479 µM) | 64 (≈ 30.7 µM) | > 64 | 16 (≈ 7.67 µM) | 8 (≈ 3.83 µM) | 1 (≈ 0.479 µM) | 16 (≈ 7.67 µM) | 32 (≈ 15.3 µM) | 32 (≈ 15.3 µM) | ≤ 0.06 | 2 (≈ 0.958 µM) | 2 (≈ 0.958 µM) | > 64 | > 64 | > 64 | 16 (≈ 7.67 µM) | > 64 | MIC [17]: > 64 µg/mL; MIC [18]: ≤ 0.06 µg/mL; mean geometric MIC, Vancomycin Resistant Strains [19]: 32 µg/mL; mean geometric MIC, Vancomycin Sensitive Strains [20]: 1.1 µg/mL
CC(C)CC(C(=O)NC1C(=O)NC(CC(N)=O)C(=O)NC2C(=O)NC3C(=O)NC(C(=O)NC(C(=O)O)c4cc(O)cc(O)c4-c4cc3ccc4O)C(OC3CC(C)(N)C(O)C(C)O3)c3ccc(c(Cl)c3)Oc3cc2cc(c3OC2OC(CO)C(O)C(O)C2OC2CC(C)(NCc3ccc(-c4ccc(Cl)cc4)cc3)C(O)C(C)O2)Oc2ccc(cc2Cl)C1O)N(C)Cc1ccc(-c2ccc(Cl)cc2)cc1.O=C(O)C(F)(F)F (stereo not drawn) [Compound 253] | 32 | 32 | 0.5 | 16 | 64 | 16 | 16 | 2 | 1 | 32 | 32 | 16 | 0.25 | 0.5 | 4 | 16 | > 64 | > 64 | 8 | 16 | MIC [17]: 16 µg/mL; MIC [18]: 0.125 µg/mL; mean geometric MIC, Vancomycin Resistant Strains [19]: 4.8 µg/mL; mean geometric MIC, Vancomycin Sensitive Strains [20]: 3 µg/mL
CC(C)CC(C(=O)NC1C(=O)NC(CC(N)=O)C(=O)NC2C(=O)NC3C(=O)NC(C(=O)NC(C(=O)O)c4cc(O)cc(O)c4-c4cc3ccc4O)C(OC3CC(C)(N)C(O)C(C)O3)c3ccc(c(Cl)c3)Oc3cc2cc(c3OC2OC(CO)C(O)C(O)C2OC2CC(C)(NCc3ccc4ccccc4n3)C(O)C(C)O2)Oc2ccc(cc2Cl)C1O)N(C)Cc1ccc2ccccc2n1 (stereo not drawn) [Compound 285] | 1 (≈ 0.533 µM) | 1 (≈ 0.533 µM) | 0.25 (≈ 0.133 µM) | 0.5 (≈ 0.267 µM) | 4 (≈ 2.13 µM) | 32 (≈ 17.1 µM) | 1 (≈ 0.533 µM) | 4 (≈ 2.13 µM) | 0.25 (≈ 0.133 µM) | 2 (≈ 1.07 µM) | 4 (≈ 2.13 µM) | 1 (≈ 0.533 µM) | ≤ 0.06 | 16 (≈ 8.53 µM) | 0.5 (≈ 0.267 µM) | 16 (≈ 8.53 µM) | > 64 | > 64 | 8 (≈ 4.27 µM) | 16 (≈ 8.53 µM) | MIC [17]: 16 µg/mL (≈ 8.53 µM); MIC [18]: ≤ 0.06 µg/mL; mean geometric MIC, Vancomycin Resistant Strains [19]: 90 µg/mL; mean geometric MIC, Vancomycin Sensitive Strains [20]: 2.4 µg/mL
CC(C)CC(C(=O)NC1C(=O)NC(CC(N)=O)C(=O)NC2C(=O)NC3C(=O)NC(C(=O)NC(C(=O)O)c4cc(O)cc(O)c4-c4cc3ccc4O)C(OC3CC(C)(NCc4ccc(-c5ccc(Cl)cc5)cc4)C(O)C(C)O3)c3ccc(c(Cl)c3)Oc3cc2cc(c3OC2OC(CO)C(O)C(O)C2OC2CC(C)(NCc3ccc(-c4ccc(Cl)cc4)cc3)C(O)C(C)O2)Oc2ccc(cc2Cl)C1O)N(C)Cc1ccc(-c2ccc(Cl)cc2)cc1.O=C(O)C(F)(F)F (stereo not drawn) [Compound 255] | > 64 | > 64 | 16 | > 64 | 64 | > 64 | > 64 | > 64 | 16 | > 64 | > 64 | > 64 | 16 | > 64 | 16 | > 64 | > 64 | > 64 | > 64 | > 64 | MIC [17]: > 64 µg/mL; MIC [18]: 1 µg/mL; mean geometric MIC, Vancomycin Resistant Strains [19]: 64 µg/mL; mean geometric MIC, Vancomycin Sensitive Strains [20]: 32 µg/mL
CC(C)CC(C(=O)NC1C(=O)NC(CC(N)=O)C(=O)NC2C(=O)NC3C(=O)NC(C(=O)NC(C(=O)O)c4cc(O)cc(O)c4-c4cc3ccc4O)C(OC3CC(C)(N)C(O)C(C)O3)c3ccc(c(Cl)c3)Oc3cc2cc(c3OC2OC(CO)C(O)C(O)C2OC2CC(C)(NCc3ccc(Cc4ccccc4)cc3)C(O)C(C)O2)Oc2ccc(cc2Cl)C1O)N(C)Cc1ccc(Cc2ccccc2)cc1 (stereo not drawn) [Compound 270] | 2 (≈ 1.02 µM) | 2 (≈ 1.02 µM) | ≤ 0.06 | 1 (≈ 0.512 µM) | 1 (≈ 0.512 µM) | 0.5 (≈ 0.256 µM) | 0.25 (≈ 0.128 µM) | 0.25 (≈ 0.128 µM) | ≤ 0.06 | 1 (≈ 0.512 µM) | 1 (≈ 0.512 µM) | 0.5 (≈ 0.256 µM) | ≤ 0.06 | 0.25 (≈ 0.128 µM) | 0.5 (≈ 0.256 µM) | 2 (≈ 1.02 µM) | > 64 | > 64 | 1 (≈ 0.512 µM) | 4 (≈ 2.05 µM) | MIC [17]: 2 µg/mL (≈ 1.02 µM); MIC [18]: ≤ 0.06 µg/mL; mean geometric MIC, Vancomycin Resistant Strains [19]: 2.8 µg/mL; mean geometric MIC, Vancomycin Sensitive Strains [20]: 0.66 µg/mL
CC(C)CC(C(=O)NC1C(=O)NC(CC(N)=O)C(=O)NC2C(=O)NC3C(=O)NC(C(=O)NC(C(=O)O)c4cc(O)cc(O)c4-c4cc3ccc4O)C(OC3CC(C)(N)C(O)C(C)O3)c3ccc(c(Cl)c3)Oc3cc2cc(c3OC2OC(CO)C(O)C(O)C2OC2CC(C)(NCc3ccncc3)C(O)C(C)O2)Oc2ccc(cc2Cl)C1O)N(C)Cc1ccncc1 (stereo not drawn) [Compound 274] | 4 (≈ 2.25 µM) | 2 (≈ 1.13 µM) | 0.5 (≈ 0.282 µM) | 1 (≈ 0.563 µM) | 8 (≈ 4.51 µM) | 16 (≈ 9.02 µM) | 2 (≈ 1.13 µM) | 4 (≈ 2.25 µM) | 1 (≈ 0.563 µM) | 2 (≈ 1.13 µM) | 8 (≈ 4.51 µM) | 4 (≈ 2.25 µM) | 0.125 (≈ 0.0704 µM) | > 64 | 1 (≈ 0.563 µM) | > 64 | > 64 | > 64 | 16 (≈ 9.02 µM) | > 64 | MIC [17]: > 64 µg/mL; MIC [18]: ≤ 0.06 µg/mL; mean geometric MIC, Vancomycin Resistant Strains [19]: > 128 µg/mL; mean geometric MIC, Vancomycin Sensitive Strains [20]: 9.2 µg/mL

From US5840684A, “Glycopeptide antibiotic derivatives” (Eli Lilly and Company, priority 1995, dated 1998)
